Reference: patent US20040191297A1, “Carotenoid formulation” (priority 1997, published 2004)

Assays:
[1] = Dietary lycopene stability, AIN-76A diet at 4 °C in the dark; type: physicochemical; details: for % (diet concentration 744 μg/g as 100%) / Lycopene concentration: 4 °C dark; for Lycopene concentration: AIN-76A diet
Description: The stability of the lycopene suspension once incorporated into the diet was assessed in two ways. The first was by placing the diet containing the suspension at 4° C. in the dark for a period of 3 weeks (Table 8A,B).
At various time points, a diet sample was taken and lycopene was extracted as follows: Approximately 0.5 to 1.0 g of sample was added to a 15 ml volume of extraction solvent consisting of 40% acetonitrile, 20% hexane, 20% methanol and 20% methylenechloride. The mixture was sonicated for 2 minutes and allowed to stand for 5 minutes. The reddish-orange clear supernatant was then decanted. This process was repeated 4 times, at which time the supernatant was colorless. Solvent was then added to a volume of 25 to 100 ml, the mixture centrifuged, and the supernatant decanted. All supernatants were then mixed. The above solvent serves two purposes; first, it is the most efficient mixture for lycopene, and second, it is the same solvent used for injecting lycopene samples into the HPLC.

retinol = assay: Liver vitamin A assay; type: in vivo, Fischer 344 rats; details: male
[2] = Preliminary feeding study, one male rat, 3 weeks; type: in vivo; details: 2.5 mM/kg diet
Description: One male rat was fed 2.5 mM lycopene (+other carotenoids)/kg diet for a period of 3 weeks. At this high dose, no change in body weight or food consumption was seen. […] The tail was brown. At necropsy, the liver was a deep red, as was the cecum and small intestine.

[3] = Lycopene content of rat serum; type: in vivo, Fischer 344 rats
Description: Prior to termination, 3 animals from each group were placed in metabolic cages and 24-hour urine and fecal collections made for subsequent lycopene assay. Blood was collected by heart puncture under anesthesia for lycopene assay and all animals were sacrificed by CO2 anesthesia. Blood and feces were stored at −20° C. At necropsy, all major organ systems were grossly inspected. Any unusual appearing tissues were placed in formalin and saved for later histological examination.
Extraction of lycopene from serum was conducted by adding 1 ml of serum to 0.1 ml echinenone standard in ethanol and 0.9 ml ethanol. The mixture was then vortexed for 20 seconds, and 2.0 ml hexane added and mixed vigorously for 1 minute. The cloudy mixture was then centrifuged at 3,000 rpm for 15 minutes at 4° C. and the clear hexane layer was decanted. The above procedure was repeated 3-5×. The pooled hexane fraction was then dried under N2 gas at 60° C., and the residue dissolved in 0.5 ml HPLC solvent and analyzed by HPLC.

[4] = Carotenoid content of Lycopene Suspension-supplemented diets after 7 months storage; type: physicochemical; details: for Carotenoid content of diet: stored at −20 °C for 7 months
Description: When the Lycopene Suspension (Henkel Corporation, La Grange, Ill.) was extracted by organic extraction methods, the major carotenoid was lycopene, but a number of other carotenoids were known to be present in tomatoes, α- and β-Carotene, phytofluene and phytoene were also present (FIGS. 6 & 7). The quantitative profile of carotenoids in the Lycopene Suspension was carried out using an HPLC system as described above, equipped with a photodiode array detector. The six major components can be seen in Table 7.
(Table 10). Note that all the major carotenoids plus the lycopene metabolite present in the Lycopene Suspension are present in the diets in the same relative proportions. However, the net loss of lycopene over 7 months was 66%, 38%, 40%, 44% and 60%, in treatment groups 1-5, respectively; in contrast, β-carotene concentrations declined by only 10% of original values over the same time period.

α-tocopherol = assay: Liver vitamin E assay; type: in vivo, Fischer 344 rats; details: for Liver α-tocopherol: female
Source text: The effect of the tomato carotenoid supplement on the absorption and storage of two important fat soluble vitamins, namely, retinol and α-tocopherol, was investigated. Using established HPLC methods, a strong liner dose-response relationship was found between the lycopene content of the liver and both retinol and a-tocopherol concentration in female R-344 rats (Table 23).

[5] = female, Group 1 (1280 mg/kg diet)
[6] = female, Group 2 (512 mg/kg diet)
[7] = female, Group 3 (256 mg/kg diet)
[8] = female, Group 5 (51 mg/kg diet)
[9] = male, Group 1 (1280 mg/kg diet)

CC(C)=CCC/C(C)=C/C=C/C(C)=C/C=C/C(C)=C/C=C/C=C(C)/C=C/C=C(C)/C=C/C=C(\C)CCC=C(C)C [Lycopene]
% (diet concentration 744 μg/g as 100%) ([1]; 1 day): 101%
% (diet concentration 744 μg/g as 100%) ([1]; 8 days): 98%
% (diet concentration 744 μg/g as 100%) ([1]; 14 days): 90%
% (diet concentration 744 μg/g as 100%) ([1]; 21 days): 72%
amount remaining relative to day 1 ([1]; 4 °C in the dark, 3 weeks): about 72%
decomposition ([1]; 4 °C in the dark, two weeks): about 10%
stability in the diet ([1]; 21 days in the dark at 4 °C): stable
Lycopene concentration ([1]; 1 day in refrigerator): 748 µg/g
Lycopene concentration ([1]; 8 days in refrigerator): 728 µg/g
Lycopene concentration ([1]; 14 days in refrigerator): 672 µg/g
Lycopene concentration ([1]; 21 days in refrigerator): 534 µg/g
Liver retinol (retinol; Group 7, lycopene 1280 mg/kg diet): 388 μg/gm
Liver retinol (retinol; Group 8, lycopene 512 mg/kg diet): 119 μg/gm
Liver retinol (retinol; Group 9, lycopene 256 mg/kg diet): 584 μg/gm
Liver retinol (retinol; Group 11, lycopene 51 mg/kg diet): 454 μg/gm
change in body weight or food consumption [2]: no change
concentration at 10 weeks ([3]; both sexes, Fischer 344, rat, serum, oral, all supplemented groups, males and females, read-out: Serum lycopene levels, overall low to high): 80 to 370 ng/mL
Lycopene content of serum, Median [3, 5]: 205 ng/mL
Lycopene content of serum, Range [3, 5]: 123 to 232 ng/mL
Lycopene content of serum, mean ± SD [3, 5]: 187 ± 043 ng/mL
Lycopene content of serum, Median [3, 6]: 180 ng/mL
Lycopene content of serum, Range [3, 6]: 109 to 211 ng/mL
Lycopene content of serum, mean ± SD [3, 6]: 169 ± 042 ng/mL
Lycopene content of serum, Median [3, 7]: 210 ng/mL
Lycopene content of serum, Range [3, 7]: 174 to 366 ng/mL
Lycopene content of serum, mean ± SD [3, 7]: 245 ± 083 ng/mL
Lycopene content of serum, Median [3, 8]: 152 ng/mL
Lycopene content of serum, Range [3, 8]: 081 to 207 ng/mL
Lycopene content of serum, mean ± SD [3, 8]: 145 ± 053 ng/mL
Lycopene content of serum, Median [3, 9]: 160 ng/mL
Lycopene content of serum, Range [3, 9]: 134 to 230 ng/mL
Lycopene content of serum, mean ± SD [3, 9]: 168 ± 036 ng/mL
Lycopene content of serum, Median ([3]; male, Group 2 (512 mg/kg diet)): 225 ng/mL
Lycopene content of serum, Range ([3]; male, Group 2 (512 mg/kg diet)): 148 to 326 ng/mL
Lycopene content of serum, mean ± SD ([3]; male, Group 2 (512 mg/kg diet)): 227 ± 068 ng/mL
Lycopene content of serum, Median ([3]; male, Group 3 (256 mg/kg diet)): 285 ng/mL
Lycopene content of serum, Range ([3]; male, Group 3 (256 mg/kg diet)): 174 to 372 ng/mL
Lycopene content of serum, mean ± SD ([3]; male, Group 3 (256 mg/kg diet)): 278 ± 066 ng/mL
Lycopene content of serum, Median ([3]; male, Group 4 (128 mg/kg diet)): 215 ng/mL
Lycopene content of serum, Range ([3]; male, Group 4 (128 mg/kg diet)): 153 to 328 ng/mL
Lycopene content of serum, mean ± SD ([3]; male, Group 4 (128 mg/kg diet)): 231 ± 064 ng/mL
Lycopene content of serum, Median ([3]; male, Group 5 (51 mg/kg diet)): 177 ng/mL
Lycopene content of serum, Range ([3]; male, Group 5 (51 mg/kg diet)): 100 to 238 ng/mL
Lycopene content of serum, mean ± SD ([3]; male, Group 5 (51 mg/kg diet)): 171 ± 049 ng/mL
Carotenoid content of diet ([4]; Diet 1, 2.5 mM/kg diet): 472 μg/gm (ppm)
Carotenoid content of diet ([4]; Diet 2, 1.0 mM/kg diet): 348 μg/gm (ppm)
Carotenoid content of diet ([4]; Diet 3, 0.5 mM/kg diet): 168 μg/gm (ppm)
Carotenoid content of diet ([4]; Diet 4, 0.25 mM/kg diet): 92 μg/gm (ppm)
Carotenoid content of diet ([4]; Diet 5, 0.10 mM/kg diet): 22 μg/gm (ppm)
net loss over 7 months ([4]; diet of treatment group 1, 7 months storage): 66%
net loss over 7 months ([4]; diet of treatment group 2, 7 months storage): 38%
net loss over 7 months ([4]; diet of treatment group 3, 7 months storage): 40%
net loss over 7 months ([4]; diet of treatment group 4, 7 months storage): 44%
net loss over 7 months ([4]; diet of treatment group 5, 7 months storage): 60%
difference in liver α-tocopherol between controls and the highest lycopene dose (α-tocopherol; female rats): 4 fold
Liver α-tocopherol (α-tocopherol; Group 1, lycopene 1280 mg/kg diet): 47 μg/gm
Liver α-tocopherol (α-tocopherol; Group 3, lycopene 256 mg/kg diet): 39 μg/gm
Liver α-tocopherol (α-tocopherol; Group 4, lycopene 128 mg/kg diet): 46 μg/gm
Liver α-tocopherol (α-tocopherol; Group 5, lycopene 51 mg/kg diet): 32 μg/gm
